From patent publication US20240366728A1, “Treatment of Diabetes Mellitus” (Carmot Therapeutics Inc., priority 2023, published 2024) come the findings set out here.

In experiment [1] the test system is GLP-1R+/+ and GLP-1R-/- mice. The experiment is described as follows: intraperitoneal glucose tolerance test in GLP-1R+/+ and GLP-1R-/- mice.
The target of experiment [2] is human GLP-1R (Homo sapiens, UniProt P43220). Briefly: β-arrestin-2 recruitment (NanoBiT), human GLP-1R. In kind it is cell-based. The note with it: read-out: hGLP-1R β-arrestin-2 % Emax; Table 17. The method, then:
To measure GLP-1R and GIPR-mediated β-arrestin recruitment, we utilized Promega's NanoBiT® technology or NanoLuc® Binary Technology. The NanoLuc luciferase is split into two subunits, called LgBiT and SmBIT, which are expressed in HEK293 cells as fusion proteins at the C-terminus of GLP-IR or GIPR and the N-terminus of β-arrestin-2. […] The next day, the media was removed and replaced with […] 1:100 dilution of Nano-Glo® Live Cell Substrate in Opti-MEM™ and equilibrated to room temperature for ten minutes. Background luminescence was measured before 10 nL compound was added using an ECHO Acoustic Liquid Handler.
To measure GLP-1R and GIPR-mediated β-arrestin recruitment, Promega's NanoBiT® technology or NanoLuc® Binary Technology were utilized. Both allow for the detection and quantification of protein: protein interactions in live cells (Samms et al., Trends Endocrinol Metab 31:410-21). The NanoLuc luciferase is split into two subunits, called LgBiT and SmBIT, which are expressed in HEK293 cells as fusion proteins at the C-terminus of GLP-1R or GIPR and the N-terminus of β-arrestin-2, respectively. […] Background luminescence was measured before 10 nL compound was added using an ECHO Acoustic Liquid Handler. Luminescence was measured at 1.5-minute intervals for 30 minutes.

human GLP-1R, sequence (P43220 24-463): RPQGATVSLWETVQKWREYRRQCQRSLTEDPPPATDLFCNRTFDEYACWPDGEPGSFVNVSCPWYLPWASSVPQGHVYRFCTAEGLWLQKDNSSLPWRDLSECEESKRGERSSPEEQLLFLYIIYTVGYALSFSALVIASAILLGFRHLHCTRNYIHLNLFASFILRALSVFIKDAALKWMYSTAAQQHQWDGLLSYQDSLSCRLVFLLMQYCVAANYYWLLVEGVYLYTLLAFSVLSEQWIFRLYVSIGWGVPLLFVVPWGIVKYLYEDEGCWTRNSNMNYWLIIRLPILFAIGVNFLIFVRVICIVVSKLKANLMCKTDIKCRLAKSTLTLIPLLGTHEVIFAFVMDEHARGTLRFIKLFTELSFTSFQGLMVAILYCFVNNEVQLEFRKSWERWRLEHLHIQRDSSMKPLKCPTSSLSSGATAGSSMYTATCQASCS

Regarding `CCCCCCCCCCCCCCCC(=O)N[C@@H](CCC(=O)NCCCC[C@H](NC(=O)[C@H](CO)NC(=O)[C@@H]1CCCN1C(=O)[C@@H]1CCCN1C(=O)[C@@H]1CCCN1C(=O)[C@H](C)NC(=O)CNC(=O)[C@H](CO)NC(=O)[C@H](CO)NC(=O)[C@@H]1CCCN1C(=O)CNC(=O)CNC(=O)[C@H](C)NC(=O)[C@H](CC(C)C)NC(=O)[C@H](CC(C)C)NC(=O)[C@H](Cc1c[nH]c2ccccc12)NC(=O)[C@H](CC(N)=O)NC(=O)[C@@H](NC(=O)[C@H](Cc1ccccc1)NC(=O)[C@H](CCC(=O)O)NC(=O)C(C)(C)NC(=O)[C@H](C)NC(=O)[C@H](C)NC(=O)[C@H](CCC(N)=O)NC(=O)[C@H](CCCCN)NC(=O)[C@H](CC(=O)O)NC(=O)[C@H](CC(C)C)NC(=O)[C@H](Cc1ccc(O)cc1)NC(=O)[C@@H](NC(=O)[C@H](CO)NC(=O)[C@H](Cc1ccc(O)cc1)NC(=O)[C@H](CC(=O)O)NC(=O)[C@H](CO)NC(=O)[C@@H](NC(=O)[C@H](Cc1ccccc1)NC(=O)[C@@H](NC(=O)CNC(=O)[C@H](CCC(=O)O)NC(=O)CSCC(=O)NCCN1C(=O)CSC1=O)[C@@H](C)O)[C@@H](C)O)[C@@H](C)CC)C(C)C)C(N)=O)C(=O)O` [CT-859], the “GLUC AUC during IPGTT (in words)” value in experiment [1] (GLP-1R knockout mice, 20 nmol/kg) is listed as “no effect on GLUC AUC”. The compound further came in with a glucose levels lowered in experiment [1] (GLP-1R+/+ mice, 200 nmol/kg) of 75%. Moreover, the “glucose lowering (in words)” value is “lowered the post-prandial glucose levels equally and significantly compared to vehicle” in experiment [1] (GLP-1R+/+ mice, 20 and 200 nmol/kg); “ineffective at lowering glucose levels” in experiment [1] (GLP-1R-/- mice, 20 nmol/kg). For the same compound, the “glucose levels lowered compared to vehicle” value in experiment [1] (GLP-1R-/- mice, 200 nmol/kg) is on record as 46%.

Consider `CCCCCCCCCCCCCCCC(=O)N[C@@H](CCC(=O)NCCCC[C@H](NC(=O)[C@H](CO)NC(=O)[C@@H]1CCCN1C(=O)[C@@H]1CCCN1C(=O)[C@@H]1CCCN1C(=O)[C@H](C)NC(=O)CNC(=O)[C@H](CO)NC(=O)[C@H](CO)NC(=O)[C@@H]1CCCN1C(=O)CNC(=O)CNC(=O)[C@H](C)NC(=O)[C@H](CC(C)C)NC(=O)[C@H](CC(C)C)NC(=O)[C@H](Cc1c[nH]c2ccccc12)NC(=O)[C@H](CC(N)=O)NC(=O)[C@@H](NC(=O)[C@H](Cc1ccccc1)NC(=O)[C@H](CCC(=O)O)NC(=O)C(C)(C)NC(=O)[C@H](C)NC(=O)[C@H](C)NC(=O)[C@H](CCC(N)=O)NC(=O)[C@H](CCCCN)NC(=O)[C@H](CC(=O)O)NC(=O)[C@H](CC(C)C)NC(=O)[C@H](Cc1ccc(O)cc1)NC(=O)[C@@H](NC(=O)[C@H](CO)NC(=O)[C@H](Cc1ccc(O)cc1)NC(=O)[C@H](CC(=O)O)NC(=O)[C@H](CO)NC(=O)[C@@H](NC(=O)[C@H](Cc1ccccc1)NC(=O)[C@@H](NC(=O)CNC(=O)[C@H](CCC(=O)O)NC(=O)CSCC(=O)NCCN1CCCCC1=O)[C@@H](C)O)[C@@H](C)O)[C@@H](C)CC)C(C)C)C(N)=O)C(=O)O` [CT-868], for which the Emax in experiment [2] came out at 1.5%.

In general, Emax refers to the greatest response seen or fitted, relative to the assay's reference.
